Several values for one entry are separate records, joined by “and”; a condition that tells them apart may be missing. Equal entries are not always repeated. Entries after “also recorded” stand apart in the source; their conditions may differ. Where two headings read alike, the source gives them in different places.
Experiments:
[1] = tested on: Influenza A H1N1pdm2009 (A/GZ/GIRD07/09, H1N1); parameters: species or system BALB/C mice; conditions: mouse, in vivo
[2] = tested on: Influenza A H1N1pdm2009 (A/GZ/GIRD07/09, H1N1); parameters: species or system BALB/C mice; conditions: mouse, in vivo; remark: listed apart in the source
[3] = tested on: Influenza A H1N1pdm2009 (A/GZ/GIRD07/09, H1N1); parameters: species or system BALB/C mice; conditions: mouse, in vivo; remark: listed apart in the source
[4] = tested on: Influenza B (B/Guangzhou/GIRD08/09); parameters: species or system BALB/C mice; conditions: mouse, in vivo
[5] = tested on: H7N9; parameters: species or system human patients; conditions: human, in vivo
[6] = mouse, in vivo
[7] = tested on: influenza A/H1N1; conditions: cited from earlier work; for weight loss and mortality: single intramuscular injection 10 mg/kg, mice infected with influenza A/H1N1
[8] = tested on: influenza; conditions: given as late as 60 h after infection; cited from earlier work
[9] = tested on: influenza A (H1N1) 2009 virus; conditions: cited from earlier work
[10] = cited from earlier work
[11] = tested on: influenza virus; conditions: repeated intravenous injections for 5 days, patients at high risk of complications; cited from earlier work
[12] = tested on: influenza; conditions: cited from earlier work
[13] = oral administration; no reference given; cited from earlier work

For `CCC(CC)[C@H](NC(C)=O)[C@@H]1[C@H](O)[C@@H](C(=O)O)C[C@H]1N=C(N)N` [Peramivir], which “efficacy of delayed treatment (survival rate) vs virus group” value [1] is on record?
The value was “efficacy was observed”.

What about the “efficacy of delayed treatment (survival)” value [1] of the same molecule?
Its value is “no efficacy”.

And the “mean number of days to death” value [1]?
The value was > 15 days.

And the survival rate [1]?
The survival rate was 100% and 80% and 70%.

What about the “survival rate vs virus group” value [1] of the same molecule?
The value was “enhanced”.

What about the “difference in weight loss suppression compared with the virus group” value ([1]; iv, 60 mg/kg) of the same molecule?
Its value is “about 9%”.

What about the “weight loss suppression compared with the virus group” value ([1]; iv, 60 mg/kg) of the same molecule?
Its value is “significant weight loss suppression”.

And the “lung virus titer vs virus group” value [2]?
Its value is “reduced lung virus titers”.

And the “lung index vs virus group” value [3]?
Its value is “improvement”.

And the “lung index vs virus group” value [4]?
The value was “improved”.

What about the Clinical outcome [5] of the same molecule?
The Clinical outcome was “Survival; also recorded: Death”.

And the “treatment efficacy in H7N9 patients” value [5]?
Its value is “a degree of treatment efficacy; also recorded: some treatment efficacy”.

And the “concentration in the blood of virus-infected mice compared with normal mice” value [6]?
The value was “no significant differences”.

And the prevention of death ([7]; single intramuscular dose 10 mg/kg administered at 24 or 48 h p.i.)?
The prevention of death was “prevented death”.

What about the “weight loss and mortality” value [7] of the same molecule?
Its value is “significantly reduces weight loss and mortality”.

What about the prevention of death [8] of the same molecule?
The prevention of death was “able to prevent death”.

And the “survival rates and viral titers in the lungs” value ([9]; 40 mg/kg·d i.v. QD x 20 days starting at 24, 48 or 72 h p.i.)?
Its value is “increased survival rates and reduced viral titers in the lungs”.

And the drug-related toxicity ([9]; repeated intravenous injections 40 mg/kg·d for 20 days)?
The drug-related toxicity was “no obvious signs of drug-related toxicity”.

And the “toxicity or side effects” value ([10]; 1000 mg/kg·d administered for 5 days)?
The value was “no signs of toxicity or side effects”.

And the “toxicity or side effects” value ([10]; doses as high as 3000 mg/kg·d administered as a single dose)?
The value was “no signs of toxicity or side effects”.

What about the clinical effect [11] of the same molecule?
Its clinical effect is “beneficial effects”.

And the safety [11]?
The safety was “no major safety issues”.

What about the “in vitro activity relative to Oseltamivir carboxylate and Zanamivir” value [12] of the same molecule?
The value was “comparable to, or better than”.

What about the oral bioavailability [13] of the same molecule?
The oral bioavailability was ≤ 3%.

With `CCOC(=O)C1=C[C@@H](OC(CC)CC)[C@H](NC(C)=O)[C@@H](N)C1` [Oseltamivir] as the molecule, how does the “efficacy of delayed treatment (survival)” value [1] read?
Its value is “no efficacy”.

What about the “lung virus titer vs virus group” value [2] of the same molecule?
Its value is “reduced”.

And the Clinical outcome [5]?
The Clinical outcome was “Survival; also recorded: Death”.

What about the “weight loss and mortality” value [7] of the same molecule?
The value was “no efficacy”.

With `CC(=O)N[C@H]1[C@H]([C@H](O)[C@H](O)CO)OC(C(=O)O)=C[C@@H]1N=C(N)N` [Zanamivir] as the molecule, how does the Clinical outcome [5] read?
Its Clinical outcome is “Death; also recorded: Survival”.

Reference: PMC4939023, “Efficacy of delayed treatment of China-made Peramivir with repeated intravenous injections in a mouse influenza model: from clinical experience to basal experiment” (BMC Infectious Diseases, 2016)
